± gives the expanded uncertainty stated by the source.
Key:
[1] = for vapor or sublimation pressure: Transpiration method; for Normal melting temperature: DTA; for Triple point temperature: DSC
[2] = Molar enthalpy of transition or fusion; details: DSC

Cc1c(Br)c(Br)c(C)c(Br)c1Br [1,2,4,5-tetrabromodimethylbenzene]
[1], Crystal
Details	vapor or sublimation pressure [kPa]
322.8 K	2.4e-06 ± 6e-07
327.7 K	4.2e-06 ± 5e-07
332.7 K	7.2e-06 ± 9e-07
337.5 K	1.25e-05 ± 8e-07
342.5 K	2.1e-05 ± 2e-06
347.5 K	3.6e-05 ± 1.2e-05
352.4 K	5.9e-05 ± 1.4e-05
357.5 K	0.0001 ± 2e-05
362.4 K	0.00016 ± 4e-05
367.4 K	0.00025 ± 2e-05

Crystal
Details	Molar enthalpy of transition or fusion [kcal/mol]	Normal melting temperature [°C]
[1]	–	254.2 ± 0.7
[2]	5.71 ± 1.43	–

Oc1c(Br)c(Br)c(Br)c(Br)c1Br [pentabromophenol]
[1], Crystal 2
Details	vapor or sublimation pressure [kPa]
322.9 K	1.9e-07 ± 9e-08
327.8 K	3.6e-07 ± 1e-07
332.8 K	6.7e-07 ± 1.4e-07
337.7 K	1.2e-06 ± 2e-07
342.6 K	2.3e-06 ± 4e-07
347.6 K	4.2e-06 ± 6e-07
352.6 K	7.8e-06 ± 1.1e-06
357.6 K	1.4e-05 ± 4e-06
362.6 K	2.7e-05 ± 4e-06
367.4 K	4.5e-05 ± 8e-06

Details	Molar enthalpy of transition or fusion, [2] [kcal/mol]	Triple point temperature, [1] [K]
Crystal 1	4.42 ± 1.43	496.3 ± 0.9
Crystal 2	2.82 ± 1.43	416.2 ± 0.9

Cc1c(Br)c(Br)c(Br)c(Br)c1Br [pentabromomethylbenzene]
[1], Crystal
Details	vapor or sublimation pressure [kPa]
322.9 K	2.7e-07 ± 1.1e-07
327.8 K	5.1e-07 ± 1.3e-07
332.9 K	9.1e-07 ± 2.3e-07
337.6 K	1.62e-06 ± 5.9e-07
342.7 K	2.9e-06 ± 8e-07
347.6 K	5.5e-06 ± 1e-06
352.6 K	9e-06 ± 7e-07
357.6 K	1.5e-05 ± 4e-06
362.5 K	2.7e-05 ± 4e-06
367.6 K	4.2e-05 ± 8e-06

Crystal
Details	Molar enthalpy of transition or fusion [kcal/mol]	Normal melting temperature [°C]
[1]	–	286 ± 0.7
[2]	7 ± 1.43	–

BrCC(Br)COc1c(Br)cc(Br)cc1Br (centres undefined) [1,3,5-tribromo(2,3-dibromopropoxy)benzene]
[1], Liquid
Details	vapor or sublimation pressure [kPa]
322.9 K	1.9e-06 ± 4e-07
327.8 K	3.2e-06 ± 8e-07
332.7 K	5.5e-06 ± 8e-07
337.7 K	9.6e-06 ± 2.4e-06
342.7 K	1.7e-05 ± 4e-06
347.7 K	2.7e-05 ± 2e-06
352.7 K	4.3e-05 ± 1e-05
357.7 K	6.7e-05 ± 1.4e-05
362.7 K	0.00013 ± 2e-05
367.7 K	0.00016 ± 4e-05

Details	Molar enthalpy of transition or fusion, [2] [kcal/mol]	Triple point temperature, [1] [K]
Crystal 1	0.612 ± 1.43	313.7 ± 0.9
Crystal 2	4.09 ± 1.43	307.9 ± 0.9

CCc1c(Br)c(Br)c(Br)c(Br)c1Br [pentabromoethylbenzene]
[1], Crystal
Details	vapor or sublimation pressure [kPa]
322.7 K	3.7e-06 ± 1e-06
327.6 K	6.1e-06 ± 2.2e-06
332.6 K	1.04e-05 ± 1.3e-06
337.5 K	1.7e-05 ± 8e-06
342.4 K	3.2e-05 ± 1e-05
347.4 K	4.9e-05 ± 1.8e-05
352.3 K	8.3e-05 ± 2.6e-05
357.4 K	0.00013 ± 2e-05
362.3 K	0.00021 ± 2e-05
367.3 K	0.00032 ± 8e-05

Crystal
Details	Molar enthalpy of transition or fusion [kcal/mol]	Normal melting temperature [°C]
[1]	–	135.8 ± 0.7
[2]	3.2 ± 1.43	–

From the NIST ThermoML archive (doi:10.1021/acs.jced.7b01040)
